Earlier results as cited in US20210059959A1, “USE OF CANNABINOIDS IN THE TREATMENT OF MENTAL DISORDERS” (GW Pharma Limited, priority 2015, published 2021).

Tested on: positive or negative symptoms of schizophrenia
Conditions: placebo-controlled clinical trial; cited from earlier work

SMILES: Cc1c(C(=O)NN2CCCCC2)nn(-c2ccc(Cl)cc2Cl)c1-c1ccc(Cl)cc1 [rimonabant]
- Effect on positive or negative symptoms of schizophrenia: no effect
